Test results: the NIST ThermoML archive (doi:10.1016/j.fluid.2008.04.022)

Experiment: xn = mol fraction of the nth substance listed
Settings: Fluid (supercritical or subcritical phases), isochoric method

FC(C(F)(F)F)C(F)(F)F [1,1,1,2,3,3,3-heptafluoropropane] + CCF
Settings | mass density [kg/m3]
318.18 K, 961.3 kPa, x2 = 0.8032 | 441.9
323.18 K, 987.1 kPa, x2 = 0.8032 | 441.8
323.19 K, 1112.7 kPa, x2 = 0.739 | 520.8
328.18 K, 1011.6 kPa, x2 = 0.8032 | 441.8
328.19 K, 1144.3 kPa, x2 = 0.739 | 520.7
333.18 K, 1034.4 kPa, x2 = 0.8032 | 441.7
333.18 K, 1439.9 kPa, x2 = 0.8036 | 671.6
333.19 K, 1173.6 kPa, x2 = 0.739 | 520.7
333.19 K, 1516.7 kPa, x2 = 0.811 | 717.6
338.18 K, 1058.6 kPa, x2 = 0.8032 | 441.7
338.18 K, 1369.5 kPa, x2 = 0.44 | 660.6
338.18 K, 1481.2 kPa, x2 = 0.8036 | 671.6
338.18 K, 1560.1 kPa, x2 = 0.811 | 717.5
338.19 K, 1202.9 kPa, x2 = 0.739 | 520.7
343.18 K, 1231.3 kPa, x2 = 0.739 | 520.6
343.18 K, 1519.5 kPa, x2 = 0.8036 | 671.5
343.18 K, 1601.7 kPa, x2 = 0.811 | 717.5
343.19 K, 1081.5 kPa, x2 = 0.8032 | 441.7
343.19 K, 1413.6 kPa, x2 = 0.44 | 660.5
343.19 K, 1712.3 kPa, x2 = 0.627 | 835.4
348.15 K, 2241.8 kPa, x2 = 0.8392 | 1112.1
348.18 K, 1104.1 kPa, x2 = 0.8032 | 441.6
348.18 K, 1260.2 kPa, x2 = 0.739 | 520.6
348.18 K, 1453.8 kPa, x2 = 0.44 | 660.5
348.18 K, 1557.8 kPa, x2 = 0.8036 | 671.4
348.19 K, 1766.5 kPa, x2 = 0.627 | 835.3
348.2 K, 1643.2 kPa, x2 = 0.811 | 717.4
353.15 K, 2312 kPa, x2 = 0.8392 | 1112
353.18 K, 1127 kPa, x2 = 0.8032 | 441.6
353.18 K, 1287.6 kPa, x2 = 0.739 | 520.5
353.19 K, 1493.5 kPa, x2 = 0.44 | 660.4
353.19 K, 1594.5 kPa, x2 = 0.8036 | 671.4
353.19 K, 1683.4 kPa, x2 = 0.811 | 717.3
353.19 K, 1818 kPa, x2 = 0.627 | 835.2
358.17 K, 1314.9 kPa, x2 = 0.739 | 520.5
358.17 K, 1532 kPa, x2 = 0.44 | 660.3
358.18 K, 1148.5 kPa, x2 = 0.8032 | 441.6
358.18 K, 1631.3 kPa, x2 = 0.8036 | 671.3
358.19 K, 1722.8 kPa, x2 = 0.811 | 717.3
358.19 K, 1868.1 kPa, x2 = 0.627 | 835.2
358.23 K, 2381.4 kPa, x2 = 0.8392 | 1111.9
363.14 K, 2448.2 kPa, x2 = 0.8392 | 1111.8
363.19 K, 1171.1 kPa, x2 = 0.8032 | 441.5
363.19 K, 1569.8 kPa, x2 = 0.44 | 660.3
363.19 K, 1761.7 kPa, x2 = 0.811 | 717.2
363.19 K, 1917 kPa, x2 = 0.627 | 835.1
363.2 K, 2459.6 kPa, x2 = 0.4954 | 1290.6
363.21 K, 1667 kPa, x2 = 0.8036 | 671.3
363.31 K, 1342.8 kPa, x2 = 0.739 | 520.4
368.14 K, 1369.4 kPa, x2 = 0.739 | 520.4
368.14 K, 1800.8 kPa, x2 = 0.811 | 717.2
368.16 K, 1608 kPa, x2 = 0.44 | 660.2
368.16 K, 1966 kPa, x2 = 0.627 | 835
368.17 K, 1703 kPa, x2 = 0.8036 | 671.2
368.18 K, 2515 kPa, x2 = 0.8392 | 1111.7
368.18 K, 2548.7 kPa, x2 = 0.4954 | 1290.5
368.29 K, 1193.9 kPa, x2 = 0.8032 | 441.5
373.04 K, 1215 kPa, x2 = 0.8032 | 441.5
373.15 K, 1644.9 kPa, x2 = 0.44 | 660.2
373.16 K, 1839.4 kPa, x2 = 0.811 | 717.1
373.18 K, 1396.2 kPa, x2 = 0.739 | 520.4
373.18 K, 1738.7 kPa, x2 = 0.8036 | 671.2
373.18 K, 2580 kPa, x2 = 0.8392 | 1111.6
373.18 K, 2636.7 kPa, x2 = 0.4954 | 1290.4
373.19 K, 2014.5 kPa, x2 = 0.627 | 835
376.18 K, 2687.7 kPa, x2 = 0.4954 | 1290.3
378.17 K, 2644.8 kPa, x2 = 0.8392 | 1111.5
378.23 K, 1774.6 kPa, x2 = 0.8036 | 671.1
378.23 K, 2063.3 kPa, x2 = 0.627 | 834.9
378.25 K, 1422.5 kPa, x2 = 0.739 | 520.3
378.25 K, 1681.3 kPa, x2 = 0.44 | 660.1
378.25 K, 1876.9 kPa, x2 = 0.811 | 717
378.29 K, 1236.9 kPa, x2 = 0.8032 | 441.4
379.23 K, 2739.1 kPa, x2 = 0.4954 | 1290.3
382.19 K, 2788.4 kPa, x2 = 0.4954 | 1290.2
383.08 K, 1448.6 kPa, x2 = 0.739 | 520.3
383.17 K, 2708.3 kPa, x2 = 0.8392 | 1111.4
383.2 K, 2110.6 kPa, x2 = 0.627 | 834.8
383.21 K, 1718.2 kPa, x2 = 0.44 | 660.1
383.21 K, 1809.6 kPa, x2 = 0.8036 | 671.1
383.21 K, 1915.8 kPa, x2 = 0.811 | 717
383.22 K, 1259.2 kPa, x2 = 0.8032 | 441.4
385.22 K, 2838.9 kPa, x2 = 0.4954 | 1290.1
388.17 K, 2771 kPa, x2 = 0.8392 | 1111.3
388.18 K, 1279.7 kPa, x2 = 0.8032 | 441.3
388.18 K, 2156.7 kPa, x2 = 0.627 | 834.8
388.19 K, 1754.7 kPa, x2 = 0.44 | 660
388.19 K, 1844.5 kPa, x2 = 0.8036 | 671
388.19 K, 1953.2 kPa, x2 = 0.811 | 716.9
388.19 K, 2887.9 kPa, x2 = 0.4954 | 1290.1
388.32 K, 1475.8 kPa, x2 = 0.739 | 520.2
391.22 K, 2937.4 kPa, x2 = 0.4954 | 1290
393.18 K, 1501.3 kPa, x2 = 0.739 | 520.2
393.18 K, 1790.2 kPa, x2 = 0.44 | 660
393.18 K, 1879 kPa, x2 = 0.8036 | 670.9
393.18 K, 1990.4 kPa, x2 = 0.811 | 716.9
393.18 K, 2203.2 kPa, x2 = 0.627 | 834.7
393.21 K, 1301.7 kPa, x2 = 0.8032 | 441.3
393.22 K, 2834 kPa, x2 = 0.8392 | 1111.2
394.18 K, 2985.9 kPa, x2 = 0.4954 | 1289.9
397.15 K, 3033.4 kPa, x2 = 0.4954 | 1289.9
398.16 K, 1322.9 kPa, x2 = 0.8032 | 441.3
398.16 K, 1912.8 kPa, x2 = 0.8036 | 670.9
398.16 K, 2248.3 kPa, x2 = 0.627 | 834.6
398.17 K, 1527.2 kPa, x2 = 0.739 | 520.1
398.17 K, 1825.4 kPa, x2 = 0.44 | 659.9
398.17 K, 2027.2 kPa, x2 = 0.811 | 716.8
398.21 K, 2896 kPa, x2 = 0.8392 | 1111.2
400.15 K, 3082 kPa, x2 = 0.4954 | 1289.8
403.14 K, 1344.2 kPa, x2 = 0.8032 | 441.2
403.15 K, 1946.2 kPa, x2 = 0.8036 | 670.8
403.16 K, 1553.2 kPa, x2 = 0.739 | 520.1
403.16 K, 1860.1 kPa, x2 = 0.44 | 659.8
403.17 K, 2293.4 kPa, x2 = 0.627 | 834.5
403.19 K, 2956.6 kPa, x2 = 0.8392 | 1111.1
403.19 K, 3129.8 kPa, x2 = 0.4954 | 1289.8
403.2 K, 2063.9 kPa, x2 = 0.811 | 716.8
